Laboratory results: patent publication US10322114B2 (Above and Beyond NB LLC, priority 2017, dated 2019)

[1] = oral 1.3 mg/kg BID 14 days versus IT 0.25 mg/hour 5 days, higher in oral

Text: Animals were then sacrificed and a necropsy was immediately performed.
After stopping the 5-day treatment, animals were sacrificed and a necropsy was immediately performed. […] One hour after stopping the 14-day treatment, animals were sacrificed and a necropsy was immediately performed.
Animals were then sacrificed and a necropsy was immediately performed. […] Animals were then sacrificed and a necropsy was immediately performed.

Nc1nc2ccc(OC(F)(F)F)cc2s1 [Riluzole, 2-Amino-6-(trifluoromethoxy)benzothiazole]
riluzole accumulation in the spinal cord, IT-treated compared to oral-treated dogs (IT 0.25 mg/hour 5 days versus oral 1.3 mg/kg BID 14 days, higher in IT): approximately 4 fold | riluzole level in CSF, oral-treated compared to IT-treated dogs (oral 1.3 mg/kg BID 14 days versus IT 0.25 mg/hour 5 days): similar | riluzole level in plasma, oral-treated compared to IT-treated dogs [1]: approximately 20 fold | riluzole level in urine, oral-treated compared to IT-treated dogs [1]: approximately 3 fold
